From patent US20130066055A1, “NEW BINDER-DRUG CONJUGATES (ADCS) AND USE THEREOF” (Bayer Intellectual Property GmbH, priority 2011, published 2013)
“And” between values parts separate entries of the source, which are not always exact repeats. Equal entries are not always repeated. Structures can show the parent of a compound that is named as a salt. Square brackets hold non-standard residues; d marks the D form. Peptide text beside a SMILES is read from it. * marks the point of attachment. X2 = CC(C)[C@@H](C(=O)*)N(C)CCCCCCN1C(=O)CC(SC[C@H](N)C(=O)O)C1=O; X3 = CC(C)[C@@H](C(=O)*)N(C)CCOCCOCCOCCC(=O)NCCCC[C@H](N)C(=O)O; X4 = C[C@@H](O)[C@@H](C(=O)*)N(C)CCCCCC(=O)NCCCC[C@H](N)C(=O)O; X1 = CC(C)[C@@H](C(=O)*)N(C)CCCCCC(=O)NCCCC[C@H](N)C(=O)O; Dolaproine = CO[C@@H]([C@@H]1CCCN1)[C@@H](C)C(=O)O; Dil = CC[C@H](C)[C@H](NC)[C@@H](CC(=O)O)OC; Oxazinan2yl(1,2) = C1CCN(*)OC1

Tests used:
[1] = Caco-2 flux assay for cell permeability; assay type: in vitro ADME; settings: human, Caco-2 cells, basal to apical
Procedure: The cell permeability of a substance can be investigated by means of in vitro testing in a flux assay using Caco-2 cells [M. D. Troutman and D. R. Thakker, Pharm. Res. 20 (8), 1210-1224 (2003)]. For this purpose, the cells were cultured for 15-16 days on 24-well filter plates. For the determination of permeation, the respective working example was applied in a HEPES buffer to the cells either apically (A) or basally (B) and incubated for 2 hours. After 0 hours and after 2 hours, samples were taken from the cis and trans compartments. The samples were separated by HPLC (Agilent 1200, Böblingen, Germany) using reverse phase columns. The HPLC system was coupled via a Turbo Ion Spray Interface to a Triple Quadropol mass spectrometer API 4000 (Applied Biosystems Applera, Darmstadt, Germany). The permeability was evaluated on the basis of a Papp value, which was calculated using the formula published by Schwab et al. [D. Schwab et al., J. Med. Chem. 46, 1716-1725 (2003)].

tubulin = assay: Fluorescence-based microtubule (tubulin) polymerization assay; assay type: biochemical
Procedure: Tubulin polymerization was investigated using the “Fluorescence-based Microtubule Polymerisation Assay Kit” from Cytoskeleton (Denver, Colo., USA; order number: BK011). With this assay, GTP is added to unpolymerized tubulin, allowing polymerization to take place spontaneously. The assay is based on the binding of the fluorophore 4′,6-di-amidino-2-phenylindole (DAPI) to tubulin. Free and bound DAPI can be differentiated on the basis of different emission spectra.
[…] In addition to the buffer control, paclitaxel, with a polymerization-increasing effect, and vinblastin, with a polymerization inhibiting effect, were run additionally as assay controls. Measurement was carried out using 96-well plates with a half base area. The kinetics of the tubulin polymerization were monitored in a Fluorimeter at 37° C. for 1 hour. The excitation wavelength was 355 nm, and emission was monitored at 460 nm. For the region of linear increase within the first 10 minutes, a calculation was made of the change in fluorescence per minute (ΔF/min), which represents the polymerization rate of the microtubuli. The potency of the test substances was quantified on the basis of their respective reduction of the polymerization rate.

[2] = target: T1, P-glycoprotein (P-gp, ABCB1) (Homo sapiens, UniProt P08183); assay: Flux assay in P-gp overexpressing L-MDR1 cells; assay type: in vitro ADME; settings: LLC-PK1, basal to apical
T1 construct: expressed in transfected cells; host or cells: LLC-PK1 (pig kidney) cells transfected with human MDR1 (L-MDR1 cells)
Procedure: The substrate properties of a substance for P-gp (ABCB1) were determined by means of a flux assay using LLC-PK1 cells which overexpress P-gp (L-MDR1 cells) [A. H. Schinkel et al., J. Clin. Invest. 96, 1698-1705 (1995)]. For this purpose, the LLC-PK1 cells or L-MDR1 cells were cultured on 96-well filter plates for 3-4 days. For determination of the permeation, the respective test substance, alone or in the presence of an inhibitor (such as Ivermectin or Verapamil, for example), was applied in a HEPES buffer to the cells either apically (A) or basally (B) and incubated for 2 hours. After 0 hours and after 2 hours, samples were taken from the cis and trans compartments. The samples were separated by HPLC using reverse phase columns. The HPLC system was coupled via a Turbo Ion Spray Interface to a Triple Quadropol mass spectrometer API 3000 (Applied Biosystems Applera, Darmstadt, Germany). The permeability was evaluated on the basis of a Papp value which was calculated using the formula published by Schwab et al. [D. Schwab et al., J. Med. Chem. 46, 1716-1725 (2003)].

T1 sequence (P08183 whole entry): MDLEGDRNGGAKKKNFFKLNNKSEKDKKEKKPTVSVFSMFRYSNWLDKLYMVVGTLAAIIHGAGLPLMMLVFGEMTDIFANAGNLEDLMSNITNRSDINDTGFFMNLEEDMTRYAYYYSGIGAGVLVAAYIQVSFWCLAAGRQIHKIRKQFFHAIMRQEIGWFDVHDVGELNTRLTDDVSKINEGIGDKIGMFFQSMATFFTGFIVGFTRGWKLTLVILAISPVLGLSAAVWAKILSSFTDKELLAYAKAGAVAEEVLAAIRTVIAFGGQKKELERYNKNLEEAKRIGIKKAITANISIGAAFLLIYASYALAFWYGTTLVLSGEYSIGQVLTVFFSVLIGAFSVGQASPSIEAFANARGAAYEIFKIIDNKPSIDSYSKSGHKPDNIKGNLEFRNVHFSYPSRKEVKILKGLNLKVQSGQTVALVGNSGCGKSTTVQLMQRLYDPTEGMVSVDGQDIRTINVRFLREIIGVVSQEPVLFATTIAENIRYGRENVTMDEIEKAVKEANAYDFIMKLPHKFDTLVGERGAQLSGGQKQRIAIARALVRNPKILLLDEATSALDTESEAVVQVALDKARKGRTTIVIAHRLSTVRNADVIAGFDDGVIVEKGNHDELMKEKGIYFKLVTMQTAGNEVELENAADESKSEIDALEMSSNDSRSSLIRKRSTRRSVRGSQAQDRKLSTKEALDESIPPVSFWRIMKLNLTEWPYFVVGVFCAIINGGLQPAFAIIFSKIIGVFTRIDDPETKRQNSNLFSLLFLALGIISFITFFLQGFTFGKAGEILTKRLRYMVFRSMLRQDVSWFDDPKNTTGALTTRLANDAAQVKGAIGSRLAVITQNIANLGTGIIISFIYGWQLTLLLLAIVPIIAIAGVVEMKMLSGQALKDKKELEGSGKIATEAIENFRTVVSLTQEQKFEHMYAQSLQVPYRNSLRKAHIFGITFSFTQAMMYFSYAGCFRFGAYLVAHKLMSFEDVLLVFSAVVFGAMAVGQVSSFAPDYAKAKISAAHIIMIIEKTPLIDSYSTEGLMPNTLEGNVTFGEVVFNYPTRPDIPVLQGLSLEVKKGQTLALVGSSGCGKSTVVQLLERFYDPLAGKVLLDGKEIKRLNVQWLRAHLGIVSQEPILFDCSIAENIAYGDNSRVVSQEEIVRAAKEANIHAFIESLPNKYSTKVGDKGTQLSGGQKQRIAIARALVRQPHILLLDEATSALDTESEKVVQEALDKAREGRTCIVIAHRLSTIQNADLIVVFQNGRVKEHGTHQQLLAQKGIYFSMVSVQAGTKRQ

Row | SMILES | Papp B→A at 2 h [1] | Tubulin polymerization in the presence of toxophore in [%]. Tubulin polymerization rate at 1 μM MMAF set at 100% (tubulin; toxophore 1 μM) | Tubulin polymerization in the presence of toxophore in [%]. Tubulin polymerization rate at 1 μM MMAF set at 100% (tubulin; toxophore 10 μM) | Papp B→A at 2 h [2]
1 | CC[C@H](C)[C@@H]([C@@H](CC(=O)N1CCC[C@H]1[C@H](OC)[C@@H](C)C(=O)N[C@@H](Cc1c[nH]c2ccccc12)C(=O)O)OC)N(C)C(=O)[C@@H](NC(=O)[C@H](C(C)C)N(C)CCCC(=O)NNC(=O)CCCCCN1C(=O)CC(SC[C@H](N)C(=O)O)C1=O)C(C)C (stereo partly drawn) [Example 72, N-(4-{2-[6-(3-{[(2R)-2-Amino-2-carboxyethyl]sulphanyl}-2,5-dioxopyrrolidin-1-yl)hexanoyl]hydrazino}-4-oxobutyl)-N-methyl-L-valyl-N-[(3R,4S,5S)-1-{(2S)-2-[(1R,2R)-3-{[(1S)-1-carboxy-2-(1H-indol-3-yl)ethyl]amino}-1-methoxy-2-methyl-3-oxopropyl]pyrrolidin-1-yl}-3-methoxy-5-methyl-1-oxoheptan-4-yl]-N-methyl-L-valinamide] | 0.16 ×10⁻⁶ cm/s | 109% | 27% | 0.36 ×10⁻⁶ cm/s
2 | CC[C@H](C)[C@@H]([C@@H](CC(=O)N1CCC[C@H]1[C@H](OC)[C@@H](C)C(=O)N[C@@H](Cc1c[nH]c2ccccc12)C(=O)O)OC)N(C)C(=O)[C@@H](NC(=O)[C@H](C(C)C)N(C)CCCCCCN1C(=O)CC(SC[C@H](N)C(=O)O)C1=O)C(C)C (stereo partly drawn) [Example 75, N-[6-(3-{[(2R)-2-Amino-2-carboxyethyl]sulphanyl}-2,5-dioxopyrrolidin-1-yl)hexyl]-N-methyl-L-valyl-N-[(3R,4S,5S)-1-{(2S)-2-[(1R,2R)-3-{[(1S)-1-carboxy-2-(1H-indol-3-yl)ethyl]amino}-1-methoxy-2-methyl-3-oxopropyl]pyrrolidin-1-yl}-3-methoxy-5-methyl-1-oxoheptan-4-yl]-N-methyl-L-valinamide] (X2-V[Dil][Dolaproine]W-OH) | 0.1 ×10⁻⁶ cm/s | 107% | 25% | 0.4 ×10⁻⁶ cm/s
3 | CC[C@H](C)[C@@H]([C@@H](CC(=O)N1CCC[C@H]1[C@H](OC)[C@@H](C)C(=O)N[C@@H](Cc1c[nH]c2ccccc12)C(N)=O)OC)N(C)C(=O)[C@@H](NC(=O)[C@H](C(C)C)N(C)CCCCCCN1C(=O)CC(SC[C@H](N)C(=O)O)C1=O)C(C)C (stereo partly drawn) [Example 74, N-[6-(3-{[(2R)-2-Amino-2-carboxyethyl]sulphanyl}-2,5-dioxopyrrolidin-1-yl)hexyl]-N-methyl-L-valyl-N-[(3R,4S,5S)-1-{(2S)-2-[(1R,2R)-3-{[(2S)-1-amino-3-(1H-indol-3-yl)-1-oxopropan-2-yl]amino}-1-methoxy-2-methyl-3-oxopropyl]pyrrolidin-1-yl}-3-methoxy-5-methyl-1-oxoheptan-4-yl]-N-methyl-L-valinamide] (X2-V[Dil][Dolaproine]W-NH2) | 0.5 ×10⁻⁶ cm/s | 117% | 64% | 0.36 ×10⁻⁶ cm/s
4 | CC[C@H](C)[C@@H]([C@@H](CC(=O)N1CCC[C@H]1[C@H](OC)[C@@H](C)C(=O)N[C@@H](Cc1ccccc1)C(=O)NCc1ccccc1)OC)N(C)C(=O)[C@@H](NC(=O)[C@H](C(C)C)N(C)CCCC(=O)NNC(=O)CCCCCN1C(=O)CC(SC[C@H](N)C(=O)O)C1=O)C(C)C (stereo partly drawn) [Example 78, N-(4-{2-[6-(3-{[(2R)-2-Amino-2-carboxyethyl]sulphanyl}-2,5-dioxopyrrolidin-1-yl)hexanoyl]hydrazino}-4-oxobutyl)-N-methyl-L-valyl-N-[(3R,4S,5S)-1-{(2S)-2-[(1R,2R)-3-{[(2S)-1-(benzylamino)-1-oxo-3-phenylpropan-2-yl]amino}-1-methoxy-2-methyl-3-oxopropyl]pyrrolidin-1-yl}-3-methoxy-5-methyl-1-oxoheptan-4-yl]-N-methyl-L-valinamide] |  | 110% |  | 
5 | CC[C@H](C)[C@@H]([C@@H](CC(=O)N1CCC[C@H]1[C@H](OC)[C@@H](C)C(=O)N[C@@H](Cc1c[nH]c2ccccc12)C(=O)N1CCCCO1)OC)N(C)C(=O)[C@@H](NC(=O)[C@H]([C@@H](C)O)N(C)CCCCCC(=O)NCCCC[C@H](N)C(=O)O)C(C)C [Example 126, N-(6-{[(5S)-5-Amino-5-carboxypentyl]amino}-6-oxohexyl)-N-methyl-L-threonyl-N-[(3R,4S,5S)-1-{(2S)-2-[(1R,2R)-3-{[(2S)-3-(1H-indol-3-yl)-1-(1,2-oxazinan-2-yl)-1-oxopropan-2-yl]amino}-1-methoxy-2-methyl-3-oxopropyl]pyrrolidin-1-yl}-3-methoxy-5-methyl-1-oxoheptan-4-yl]-N-methyl-L-valinamide trifluoroacetate] (X4-V[Dil][Dolaproine]W-{Oxazinan2yl(1,2)}) | 0.18 ×10⁻⁶ cm/s |  |  | 
6 | CC[C@H](C)[C@@H]([C@@H](CC(=O)N1CCC[C@H]1[C@H](OC)[C@@H](C)C(=O)N[C@@H](Cc1c[nH]c2ccccc12)C(=O)N1CCCCO1)OC)N(C)C(=O)[C@@H](NC(=O)[C@H](C(C)C)N(C)CCOCCOCCOCCC(=O)NCCCC[C@H](N)C(=O)O)C(C)C [Example 117, N-[(18S)-[8-Amino-18-carboxy-12-oxo-3,6,9-trioxa-13-azaoctadec-1-yl]-N-methyl-L-valyl-N-[(3R,4S,5S)-1-{(2S)-2-[(1R,2R)-3-{[(2S)-3-(1H-indol-3-yl)-1-(1,2-oxazinan-2-yl)-1-oxopropan-2-yl]amino}-1-methoxy-2-methyl-3-oxopropyl]pyrrolidin-1-yl}-3-methoxy-5-methyl-1-oxoheptan-4-yl]-N-methyl-L-valinamide trifluoroacetate] (X3-V[Dil][Dolaproine]W-{Oxazinan2yl(1,2)}) |  | 60% and 78% |  | 
7 | CC[C@H](C)[C@@H]([C@@H](CC(=O)N1CCC[C@H]1[C@H](OC)[C@@H](C)C(=O)N[C@@H](Cc1ccc(O)cc1)C(=O)N1CCCCO1)OC)N(C)C(=O)[C@@H](NC(=O)[C@H](C(C)C)N(C)CCCCCC(=O)NCCCC[C@H](N)C(=O)O)C(C)C [Example 127, N-(6-{[(5S)-5-Amino-5-carboxypentyl]amino}-6-oxohexyl)-N-methyl-L-valyl-N-[(3R,4S,5S)-1-{(2S)-2-[(1R,2R)-3-{[(2S)-3-(4-hydroxyphenyl)-1-(1,2-oxazinan-2-yl)-1-oxopropan-2-yl]amino}-1-methoxy-2-methyl-3-oxopropyl]pyrrolidin-1-yl}-3-methoxy-5-methyl-1-oxoheptan-4-yl]-N-methyl-L-valinamide trifluoroacetate] (X1-V[Dil][Dolaproine]Y-{Oxazinan2yl(1,2)}) | 0.15 ×10⁻⁶ cm/s |  |  | 
8 | CC[C@H](C)[C@@H]([C@@H](CC(=O)N1CCC[C@H]1[C@H](OC)[C@@H](C)C(=O)N[C@@H](Cc1c[nH]c2ccccc12)C(=O)N1CCCCO1)OC)N(C)C(=O)[C@@H](NC(=O)[C@H](C(C)C)N(C)CCCCCCN1C(=O)CC(SC[C@H](N)C(=O)O)C1=O)C(C)C (stereo partly drawn) [Example 76, N-[6-(3-{[(2R)-2-Amino-2-carboxyethyl]sulphanyl}-2,5-dioxopyrrolidin-1-yl)hexyl]-N-methyl-L-valyl-N-[(3R,4S,5S)-1-{(2S)-2-[(1R,2R)-3-{[(2S)-3-(1H-indol-3-yl)-1-(1,2-oxazinan-2-yl)-1-oxopropan-2-yl]amino}-1-methoxy-2-methyl-3-oxopropyl]pyrrolidin-1-yl}-3-methoxy-5-methyl-1-oxoheptan-4-yl]-N-methyl-L-valinamide] (X2-V[Dil][Dolaproine]W-{Oxazinan2yl(1,2)}) |  | 121% | 35% | 
